Legend:
HepG2 cells [1] = assay: MTT assay, inhibition of proliferation of HepG2 cells; format: cell-based, human; conditions: for IC50: in vitro, 72 h
Protocol: (§1) As shown in Figure 1 and Table 1, compounds 1–16 were evaluated for their inhibitory effects on the proliferation of HepG2 and LO2 cells by MTT assay. […] It provided the experimental basis for the subsequent synthesis of attenuating and improving urushiol derivatives.
(§2) Detection of cell proliferation by MTT
(§3) MTT assay was used to determine the inhibitory effect of the sample on the proliferation of HepG2 cells. The tumor cells of logarithmic growth stage were inoculated with 3.5 * 103 / well in 96 well culture plate. 0.2 ml/pore system was cultured for 72 h with different concentrations of samples. Then 20μL(final concentration 0.5 mg / mL) of MTT were added to each pore for 4 h. The supernatant was carefully adsorbed, DMSO 0.15 mL was added to each pore, and oscillatory mixing was carried out. The absorbance (A) value at 490 nm wavelength was measured by enzyme labeling instrument. The inhibition rate of cell proliferation was calculated as follows: [(A value of negative control group-A value of blank group)-(A value of experimental group A value of blank group)] / (negative pair group A-A value of blank group) × 100.Statistical method. The statistical analysis was carried out by SPSS 17.0 statistical software. The measured data were described by x ±s, and the mean of the two samples was compared with t test (P < 0. 05).
(§4) Materials and methods: Main reagents and instruments […]
(§5) Full-range rainbow […]
(§6) The HepG2 cells were cultured in a saturated humidity incubator with 90% […]
(§7) Jiangsu Kaiji Biotechnology Co., Ltd. Main reagents and consumables Cell culture bottle […]
(§8) Cell proliferation measured by MTT
(§9) 1) the cells were digested and counted, the cell suspension was prepared by 3 x 10^4 /ml, and 100 micron L cell suspension was added to each hole in the 96 hole cell culture plate.
(§10) 2) 96 hole cell culture plate was placed in 37, 5%, CO2 culture box for 24 hours.
(§11) 3) use the medium to dilute the drug to the desired working fluid concentration, add 100 micron l per hole to the corresponding drug medium, and establish a negative control group and a positive control group (paclitaxel, 20ug/ml).
(§12) 4) 96 hole cell culture plate was placed at 37 ℃ and 5% CO2 incubator for 72 hours.
(§13) 5) 96 hole board for MTT staining, lambda =490nm, OD value determination; a. 20 μL MTT (5mg/ml) per hole was added to the culture box for 4 hours. b. discarding the supernatant, adding 150 μL DMSO for each hole, and gently mixing the […]
(§14) c. lambda =490nm, ELISA od readout per hole, the inhibition rate was calculated.
(§15) 6) calculate the inhibition rate of each group.The inhibition rate (%) = (negative control group OD value of experimental group / OD) negative control group OD x 100% […]
(§16) 7 check the machine and record the red fluorescence at the excitation wavelength of 488nm.
(§17) Detection of apoptosis by Annexin-V FITC/PI double staining
(§18) (1) inoculate the logarithmic growth cells into the six-hole plate. The next day, after the cells are adhered to the wall, according to the group . The culture medium containing medicine was added and the negative control group was set up at the same time
(§19) (2) after 72 hours of treatment, the cells were digested with 0.25% trypsin (excluding […]
(§20) (3) 5 × 10 ~ 5 cells were collected by PBS washing cells twice (centrifugation 2000rpm for 5

LO2 cells = assay: MTT assay, toxic effect on normal liver cells LO2; format: cell-based; conditions: in vitro
Protocol: as §1, §2, §3, §4, §5, §6, §7, §8, §9, §10, §11, §12, §13, §14, §15, §16, §17, §18, §19, §20

HepG2 cells [2] = assay: PI single staining assay for cell cycle (flow cytometry); format: cell-based, human; conditions: for G1 (%) / G2 (%) / S (%): 72 h
Protocol: After the cells were tested with three different doses of Compound 1 (1, 3, and 12 μM), they were collected and detected by flow cytometry. […] Compared with the blank control group, the proportion of cells in G0/G1 phase of each dose of compound 1 increased gradually, but both the percentage of S stage cells and the proportion of cells in G2/M stage decreased to some extent. […]
Detection of cell cycle by PI single staining
1, the logarithmic growth phase were digested and inoculated into six well plates, the next day, after the cells adhered, according to the group set to join the corresponding drug containing medium, and the establishment of the negative control group; 2, after the action of 72h, the cells were digested with 0.25% pancreatin (not containing […]
3, 5 x 10^5 cells were collected by PBS scrubbing cells (centrifuge 2000rpm, 5min).
4, the single cell suspension prepared was fixed for 2 hours (or overnight) with a volume fraction of 70% ethanol, and stored at 4 ℃. Before washing, PBS was used to remove the fixative solution (if needed, cell suspension was filtered through 200 mesh mesh).
5 plus 100 mu L RNase A 37 ℃ water bath 30min;
6, adding 400 L PI dyeing and avoiding light 30min at 4 ℃.
7 check the machine and record the red fluorescence at the excitation wavelength of 488nm. […]

HepG2 cells [3] = assay: Annexin-V FITC/PI double staining for apoptosis (flow cytometry); format: cell-based, human; conditions: 72 h
Protocol: After treating HepG2 cells with three concentrations of compound 1 for 72 h, flow cytometry was used to detect the apoptosis rate changes. […]
as §17
(1) inoculate the logarithmic growth cells into the six-hole plate. The next day, after the cells are adhered to the wall, according to the group . […]
as §19
(§21) (3) 5 × 10 ~ 5 cells were collected by PBS washing cells twice (centrifugation 2000rpm for 5 […]
(4) adding 500 μ L Binding Buffer suspension cells;
(5) After adding 5 μ L Annexin V-FITC, adding 5 μ L Pi, mixing;
(6) at room temperature, no light, the reaction time was 5 ~ 15 min, and the apoptosis was detected by flow cytometry. […]

HepG2 cells [4] = assay: JC-1 staining assay of mitochondrial membrane potential; format: cell-based, human
Protocol: Detection of mitochondrial membrane potential by JC-1 staining
1inoculate the logarithmic growth cell digestion into the six-hole plate, the next day, after the cells adhered to the wall, according to the group set up to add the corresponding drug medium, and set up a negative control group at the same time;
(2) the cell concentration was collected and adjusted to 1 × 10^6 / ml by PBS washing (centrifugation 2000rpm for 5 min);
(3) 100 μ L 10 × Incubation Buffer and 900 μ L sterilized deionized water were diluted to 1 × Incubation buffer, and then preheated to 37 ℃;
(4) 500 μ L 1 × Incubation buffer was absorbed and 1 μ L JC-1 was added to prepare JC-1 […]
(5) the cells were incubated in a incubator containing CO 2 at 37 ℃ for 15 ~ 20 min with […]
(6) the cells were collected by centrifugation at room temperature for 5 min and washed twice with 1 × Incubation Buffer.
(7) resuspension cells of 500 μ L 1 × Incubation Buffer;
(8) on the computer test. […]

HepG2 cells [5] = assay: Calcium content detection (Fluo-3 probe, flow cytometry); format: cell-based, human; conditions: for Mean (calcium, Fluo-3 fluorescence): 72 h
Protocol: Calcium content detection
(1) inoculate the logarithmic growth cells into the six-hole plate. The next day, after the cells are adhered to the wall, according to the group . The culture medium containing medicine was added and the negative control group was set up at the same time.
as §19, §21
(4) adding 5 μ M Fluo-3 probe and mixing it to 37 degrees to avoid light for 30 min;

HDAC2 = assay: Western blot of HDAC2 expression in HepG2 cells; format: cell-based, human; conditions: versus hepatoma cell group, p < 0.05
Excerpt: The total protein was extracted from the logarithmic growth phase of hepatoma HepG2 cell line, and the expression of HDAC2 was detected by Western blot method with urushiol derivative compound 1(see Figure 3). […] The mechanism was probably related to the inhibition of HDAC2 expression.
as §2, §3, §4

HepG2 cells [6] = assay: Morphological observation of HepG2 cells; format: cell-based, human; conditions: 6.25, 25 and 50 μM
Protocol: The mortality rate of HepG2 cells was increasing faster on higher concentration of compound 1. The inhibition of cell proliferation strengthened over time. […] The cells became round, the volume became smaller and the refraction decreased. When the cells were treated with high concentration of compound 1, the cells were suspended and shed. The cells no longer adhered to the wall. They gradually became round, and the membrane ruptured, shrank and finally lost vitality.

`C/C=C\C=C\C/C=C\CCCCCCCc1ccc2c(C)cc(=O)oc2c1OB(O)c1ccncc1` [Compound 15] was tested, and the IC50 (HepG2 cells [1]; Homo sapiens, HepG2, 72 h) was 67 µM and the IC50 (LO2 cells; Homo sapiens, L02, 72 h) was over 200 µM.

With `C/C=C\C=C\C/C=C\CCCCCCCc1ccc2c(C)cc(=O)oc2c1OB(O)c1ccnc(F)c1` [Compound 16] the IC50 (HepG2 cells [1]; Homo sapiens, HepG2, 72 h) was 151 µM and the IC50 (LO2 cells; Homo sapiens, L02, 72 h) was over 200 µM.

Molecule `C/C=C\C=C\C/C=C\CCCCCCCc1cccc2c1OB(c1ccncc1)O2` [Compound 5] has an IC50 (HepG2 cells [1]; Homo sapiens, HepG2, 72 h) of 180 µM and an IC50 (LO2 cells; Homo sapiens, L02, 72 h) of over 200 µM.

`C/C=C\C=C\C/C=C\CCCCCCCc1cccc2c1OB(C(=O)C(F)(F)C(F)(F)F)O2` [Compound 2] showed an IC50 (HepG2 cells [1]; Homo sapiens, HepG2, 72 h) of 198 µM and an IC50 (LO2 cells; Homo sapiens, L02, 72 h) of over 200 µM.

With `C/C=C\C=C\C/C=C\CCCCCCCc1ccc2c(C)cc(=O)oc2c1O` [Compound 10, 8-hydroxy-4-methyl-7-((8Z,11E,13Z)-pentadeca-8,11,13-trien-1-yl)-2H-chro men-2-one] the IC50 (HepG2 cells [1]; Homo sapiens, HepG2, 72 h) was about 28 µM, the IC50 (HepG2 cells [1]) was 28.8 µM and the IC50 (LO2 cells; Homo sapiens, L02, 72 h) was 180 µM. For the same molecule, the IC50 (LO2 cells; 72 h) was 198 µM.

In the case of `C/C=C\C=C\C/C=C\CCCCCCCc1cccc(O)c1O[Si](CCCS)(OC)OC` [Compound 1], the “inhibitory activity on HepG2 cells proliferation (in words)” value (HepG2 cells [1]) is reported as “strong”, the IC50 (HepG2 cells [1]; Homo sapiens, HepG2, 72 h) is reported as 7.89 µM and the IC50 (HepG2 cells [1]) is reported as 7.88 µM. The IC50 (LO2 cells; Homo sapiens, L02, 72 h) was 150 µM, the IC50 (LO2 cells; 72 h) was 151 µM and the “G1 (%)” value (HepG2 cells [2]; HepG2, 1 μM) was 54.48%. The “G2 (%)” value (HepG2 cells [2]; HepG2, 1 μM) was 15.79%, the “S (%)” value (HepG2 cells [2]; HepG2, 1 μM) was 29.72% and the “G1 (%)” value (HepG2 cells [2]; HepG2, 3 μM) was 60.17%. For the same molecule, the “G2 (%)” value (HepG2 cells [2]; HepG2, 3 μM) was 13.64%, the “S (%)” value (HepG2 cells [2]; HepG2, 3 μM) was 26.19% and the “G1 (%)” value (HepG2 cells [2]; HepG2, 12 μM) was 65.80%. For the same molecule, the “G2 (%)” value (HepG2 cells [2]; HepG2, 12 μM) was 13.79%, the “S (%)” value (HepG2 cells [2]; HepG2, 12 μM) was 20.40% and the “effect on cell cycle (in words)” value (HepG2 cells [2]; HepG2, 1, 3 and 12 μM) was “block cells in G0/G1 phase”. The “Apoptosis (%)” value (HepG2 cells [3]; HepG2, 1 μm) was 15.73%, the “LL (%)” value (HepG2 cells [3]; HepG2, 1 μm) was 82.71% and the “LR (%)” value (HepG2 cells [3]; HepG2, 1 μm) was 9.38%. The “UL (%)” value (HepG2 cells [3]; HepG2, 1 μm) was 1.56%, the “UR (%)” value (HepG2 cells [3]; HepG2, 1 μm) was 6.35% and the “Apoptosis (%)” value (HepG2 cells [3]; HepG2, 3 μm) was 32.60%. The “LL (%)” value (HepG2 cells [3]; HepG2, 3 μm) was 67.33%, the “LR (%)” value (HepG2 cells [3]; HepG2, 3 μm) was 16.42% and the “UL (%)” value (HepG2 cells [3]; HepG2, 3 μm) was 0.07%. For the same molecule, the “UR (%)” value (HepG2 cells [3]; HepG2, 3 μm) was 16.18%, the “Apoptosis (%)” value (HepG2 cells [3]; HepG2, 12 μm) was 47.87% and the “LL (%)” value (HepG2 cells [3]; HepG2, 12 μm) was 48.91%. The “LR (%)” value (HepG2 cells [3]; HepG2, 12 μm) was 37.68%, the “UL (%)” value (HepG2 cells [3]; HepG2, 12 μm) was 3.24% and the “UR (%)” value (HepG2 cells [3]; HepG2, 12 μm) was 10.19%. The “UR % Gated” value (HepG2 cells [4]; HepG2, JC-1, 12 μM) was 46.18%, the “Green Fluorescence (%) (LR % gated)” value (HepG2 cells [4]; HepG2, JC-1, 1 μm) was 16.72% and the “Green Fluorescence (%) (LR % gated)” value (HepG2 cells [4]; HepG2, JC-1, 3 μm) was 28.14%. The “Green Fluorescence (%) (LR % gated)” value (HepG2 cells [4]; HepG2, JC-1, 12 μm) was 53.82%, the “Mean (calcium, Fluo-3 fluorescence)” value (HepG2 cells [5]; HepG2, 1 μm) was 65.01 and the “Mean (calcium, Fluo-3 fluorescence)” value (HepG2 cells [5]; HepG2, 3 μm) was 94.39. The “Mean (calcium, Fluo-3 fluorescence)” value (HepG2 cells [5]; HepG2, 12 μm) was 136.80, the “intracellular calcium concentration (in words)” value (HepG2 cells [5]; HepG2, compared with blank control group) was “increased” and the “expression of HDAC2 protein (in words)” value (HDAC2) was “significantly lower”. For the same molecule, the “proliferation of HepG2 cells by morphological observation (in words)” value (HepG2 cells [6]) was “gradually inhibited”.
